In test [1] the target is T1, PRMT5 (Homo sapiens, UniProt O14744).
T1 construct: purchased Viva (custom protein)
Kind of test: PRMT5 IC50 assay in the presence of SAM as cofactor. It is filed as biochemical. In outline:
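MTA-dependent versus SAM-dependent inhibition of human PRMT5 was assessed by IC50; conversion factors of 13.5 and 1.5 gave the corresponding Ki.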

Test [2] addresses T1, PRMT5. Kind of test: PRMT5 IC50 assay with no cofactor. Format: biochemical. The note with it: read-out: No Co-factor IC50. Summed up: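 Values reflect IC50 (μM) on human PRMT5 under three cofactor states. Selectivity is derived as the quotient of SAM-state Ki over MTA-state Ki, with each Ki obtained from its IC50.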
Test [3] concerns the target T1, PRMT5. Kind of test: PRMT5 IC50 assay in the presence of MTA as cofactor. The note with it: for IC50: PRMT5, MTA as cofactor; for SAM/MTA Ratio: ratio between Ki in the presence of SAM and Ki in the presence of MTA. Format: biochemical. Summed up: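 Three cofactor conditions are run: SAM-bound, MTA-bound and cofactor-free enzyme. IC50 is read from each; for the SAM and MTA arms it is divided by 1.5 and 13.5 respectively to give Ki.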

A further test relates to HAP1 MTAP-intact. Kind of test: SDMA in-cell western assay, HAP1 MTAP-intact cell line. Format: cell-based. As to conditions: Homo sapiens. Summed up: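 Using an MTAP-isogenic HAP1 cell pair, inhibition of SDMA formation is read by in-cell western and expressed as IC50. MTAP-selectivity is assigned where the ratio between lines reaches 3 fold or greater.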
The subject of a further test is HAP1 MTAP-deleted. Description: SDMA in-cell western assay, HAP1 MTAP-deleted cell line. Format: cell-based. As to conditions: for IC50: Homo sapiens, HAP1 MTAP-deleted cell line; for MTAP Intact/Deleted Ratio: IC50 ratio HAP1 MTAP-intact / HAP1 MTAP-deleted. In outline: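 In-cell western for SDMA marks; MTAP-deleted (null) HAP1 background; values given as IC50.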

A value given as a limit tells only on which side of the number the result lay.

T1 sequence (O14744 whole entry): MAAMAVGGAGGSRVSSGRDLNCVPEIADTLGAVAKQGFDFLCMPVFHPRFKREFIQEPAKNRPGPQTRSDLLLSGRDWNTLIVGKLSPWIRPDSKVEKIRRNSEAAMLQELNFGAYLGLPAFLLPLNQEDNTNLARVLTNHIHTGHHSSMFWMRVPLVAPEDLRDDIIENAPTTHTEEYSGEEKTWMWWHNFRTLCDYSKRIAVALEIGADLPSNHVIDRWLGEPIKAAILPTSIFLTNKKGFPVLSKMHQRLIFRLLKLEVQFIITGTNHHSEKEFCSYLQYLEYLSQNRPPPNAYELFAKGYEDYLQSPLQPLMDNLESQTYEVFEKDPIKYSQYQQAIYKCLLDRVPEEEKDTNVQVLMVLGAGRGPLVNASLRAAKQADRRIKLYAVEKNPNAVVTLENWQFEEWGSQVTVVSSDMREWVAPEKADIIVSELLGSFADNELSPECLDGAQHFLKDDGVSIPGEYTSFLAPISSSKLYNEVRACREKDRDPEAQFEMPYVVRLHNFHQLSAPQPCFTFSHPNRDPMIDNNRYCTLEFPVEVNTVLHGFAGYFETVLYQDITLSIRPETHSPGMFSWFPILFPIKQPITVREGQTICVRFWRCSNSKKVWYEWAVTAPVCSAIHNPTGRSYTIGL
T1 sequence (Q9BQA1 whole entry partner): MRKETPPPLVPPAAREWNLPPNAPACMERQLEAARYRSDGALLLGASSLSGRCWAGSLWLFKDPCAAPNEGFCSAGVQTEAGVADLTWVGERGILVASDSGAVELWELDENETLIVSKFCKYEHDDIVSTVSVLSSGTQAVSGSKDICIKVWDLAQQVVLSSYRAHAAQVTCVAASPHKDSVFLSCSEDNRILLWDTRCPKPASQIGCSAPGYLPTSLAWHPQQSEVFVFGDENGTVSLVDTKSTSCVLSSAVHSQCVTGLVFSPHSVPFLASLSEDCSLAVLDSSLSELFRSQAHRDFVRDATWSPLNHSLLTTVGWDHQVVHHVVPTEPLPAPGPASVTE

The IC50 is the concentration at which inhibition is half-maximal. As for `Cc1ncoc1COc1ccc2c(c1C)CCN(C[C@@H](O)CNC(=O)c1cc(NC3CCCCC3)ncn1)C2` [Compound 368, 6-(cyclohexylamino)-N-[(2S)-2-hydroxy-3-{5-methyl-6-[(4-methyl-1,3-oxazol-5-yl)methoxy]-1,2,3,4-tetrahydroisoquinolin-2-yl}propyl]pyrimidine-4-carboxamide], the 50% inhibitory concentration (IC50) at PRMT5 [1] was 500 to 5000 nM; on PRMT5 [2] it was at least 5000 nM; at PRMT5 [3] it was 50 to 500 nM; in the test with HAP1 MTAP-intact, at least 10000 nM; in the test on HAP1 MTAP-deleted it was at least 10000 nM. The “SAM/MTA Ratio” value on PRMT5 [3] is “A (a Ki ratio greater than or equal to 10 fold between the Ki in the presence of SAM and the Ki in the presence of MTA)”. Also, the “MTAP Intact/Deleted Ratio” value with HAP1 MTAP-deleted is “C* (an IC50 ratio of less than 3 fold between the IC50 in the HAP1 MTAP-intact cell line and the HAP1 MTAP-deleted cell line)”.

Regarding `CC(=O)N1CC(Nc2cc(C(=O)NC[C@H](O)CN3CCc4c(ccc(OCc5cnco5)c4Cl)C3)ccn2)C1` [Compound 380, (S)-2-((1-acetylazetidin-3-yl)amino)-N-(3-(5-chloro-6-(oxazol-5-ylmethoxy)-3,4-dihydroisoquinolin-2(1H)-yl)-2-hydroxypropyl)isonicotinamide], the IC50 is 50 to 500 nM at PRMT5 [1]; 500 to 5000 nM on PRMT5 [2]; 50 to 500 nM at PRMT5 [3]; at least 10000 nM with HAP1 MTAP-intact; at least 10000 nM in the test on HAP1 MTAP-deleted. Further, on PRMT5 [3], the “SAM/MTA Ratio” value was “A (a Ki ratio greater than or equal to 10 fold between the Ki in the presence of SAM and the Ki in the presence of MTA)”. The “MTAP Intact/Deleted Ratio” value in the test on HAP1 MTAP-deleted is “C* (an IC50 ratio of less than 3 fold between the IC50 in the HAP1 MTAP-intact cell line and the HAP1 MTAP-deleted cell line)”.

Consider `Cc1ncoc1COc1ccc2c(c1Br)CCN(C[C@@H](O)CNC(=O)c1cccc(NC3CCC3)c1)C2` [Compound 354, (S)—N-(3-(5-bromo-6-((4-methyloxazol-5-yl)methoxy)-3,4-dihydroisoquinolin-2(1H)-yl)-2-hydroxypropyl)-3-(cyclobutylamino)benzamide], for which the IC50 was 500 to 5000 nM at PRMT5 [1]; at least 5000 nM at PRMT5 [2]; 500 to 5000 nM at PRMT5 [3]; at least 10000 nM with HAP1 MTAP-intact; at least 10000 nM in the test on HAP1 MTAP-deleted. For the same compound, in the test on HAP1 MTAP-deleted, the “MTAP Intact/Deleted Ratio” value was “C* (an IC50 ratio of less than 3 fold between the IC50 in the HAP1 MTAP-intact cell line and the HAP1 MTAP-deleted cell line)”.

`COCCN(C)c1cc(C(=O)NC[C@H](O)CN2CCc3c(ccc(OCc4cnco4)c3Cl)C2)cc(NC2CCC2)n1` [Compound 345]: the IC50 at PRMT5 [1] is 50 to 500 nM; at PRMT5 [2] it was at least 5000 nM; on PRMT5 [3], 50 to 500 nM; with HAP1 MTAP-intact, at least 10000 nM; with HAP1 MTAP-deleted, 1000 to 10000 nM. For the same compound, the “SAM/MTA Ratio” value on PRMT5 [3] was “A (a Ki ratio greater than or equal to 10 fold between the Ki in the presence of SAM and the Ki in the presence of MTA)”. The “MTAP Intact/Deleted Ratio” value in the test on HAP1 MTAP-deleted is “B* (an IC50 ratio greater than or equal to 3 fold but lower than 10 fold between the IC50 in the HAP1 MTAP-intact cell line and the HAP1 MTAP-deleted cell line)”.

Take `Cc1ncoc1COc1ccc2c(c1)CCN(C[C@@H](O)CNC(=O)c1cncc(NC3CCC3)c1)C2` [Compound 271, (S)-5-(cyclobutylamino)-N-(2-hydroxy-3-(6-((4-methyloxazol-5-yl)methoxy)-3N-dihydroisoquinolin-2(1H)-yl)propyl)nicotinamide]: the IC50 at PRMT5 [1] is 50 to 500 nM; at PRMT5 [2], 500 to 5000 nM; at PRMT5 [3] it was 50 to 500 nM; in the test on HAP1 MTAP-intact, below 1000 nM; with HAP1 MTAP-deleted, below 1000 nM. The “SAM/MTA Ratio” value at PRMT5 [3] was “A (a Ki ratio greater than or equal to 10 fold between the Ki in the presence of SAM and the Ki in the presence of MTA)”. The “MTAP Intact/Deleted Ratio” value in the test with HAP1 MTAP-deleted was “C* (an IC50 ratio of less than 3 fold between the IC50 in the HAP1 MTAP-intact cell line and the HAP1 MTAP-deleted cell line)”.

Values taken from patent publication US11986471B2, “Compounds and methods of use” (Tango Therapeutics, Inc., priority 2018, dated 2024).
